Measured values: the NIST ThermoML archive (doi:10.1016/j.jct.2011.08.016)

Assay: xn = mol fraction of the nth substance listed
Conditions: Liquid, Vibrating tube method

CCCCCCCCCC [decane] + CCCCCCC
mass density [kg/m3]
Conditions	x2 = 0.0531	x2 = 0.2594	x2 = 0.5219	x2 = 0.777	x2 = 0.952
343.09 K, 1000 kPa	690.42	–	670.9	656.56	–
343.09 K, 2000 kPa	691.49	–	672.01	657.76	–
343.09 K, 3000 kPa	692.55	–	673.08	658.95	–
343.09 K, 4000 kPa	693.59	–	674.15	660.13	–
343.09 K, 5000 kPa	694.62	–	675.24	661.28	–
343.09 K, 6000 kPa	695.63	–	676.3	662.42	–
343.09 K, 7000 kPa	696.62	–	677.39	663.56	–
343.09 K, 8000 kPa	697.6	–	678.46	664.71	–
343.09 K, 9000 kPa	698.57	–	679.53	665.84	–
343.09 K, 10000 kPa	699.52	–	680.57	666.95	–
343.09 K, 11000 kPa	700.46	–	681.55	668.04	–
343.09 K, 12000 kPa	701.38	–	682.56	669.13	–
343.09 K, 13000 kPa	702.3	–	683.57	670.2	–
343.09 K, 14000 kPa	703.21	–	684.56	671.24	–
343.09 K, 15000 kPa	704.09	–	685.54	672.27	–
343.09 K, 16000 kPa	704.98	–	686.5	673.29	–
343.09 K, 17000 kPa	705.84	–	687.45	674.28	–
343.09 K, 18000 kPa	706.7	–	688.39	675.26	–
343.09 K, 19000 kPa	707.54	–	689.28	676.22	–
343.09 K, 20000 kPa	708.37	–	690.16	677.14	–
343.09 K, 21000 kPa	709.2	–	691.02	678.06	–
343.09 K, 22000 kPa	710	–	691.87	678.95	–
343.09 K, 23000 kPa	710.8	–	692.69	679.82	–
343.09 K, 24000 kPa	711.58	–	693.49	680.67	–
343.09 K, 25000 kPa	712.36	–	694.29	681.49	–
343.11 K, 1000 kPa	–	682.79	–	–	645.16
343.11 K, 2000 kPa	–	683.83	–	–	646.47
343.11 K, 3000 kPa	–	684.89	–	–	647.73
343.11 K, 4000 kPa	–	685.87	–	–	649
343.11 K, 5000 kPa	–	686.9	–	–	650.27
343.11 K, 6000 kPa	–	687.93	–	–	651.49
343.11 K, 7000 kPa	–	688.92	–	–	652.71
343.11 K, 8000 kPa	–	689.92	–	–	653.91
343.11 K, 9000 kPa	–	690.94	–	–	655.08
